Entries after “also recorded” stand apart in the source; their conditions may differ.
How the values were obtained:
[1] = test system: peripheral blood lymphocytes; conditions: for number of peripheral blood lymphocytes migrating through the membrane to IP-10: overnight incubation at 0 μM to 500 μM, FIG. 4
[2] = test system: chronic lymphocytic leukemia cells; assay: Chemokinesis: migration of chronic lymphocytic leukemia cells through a membrane, no etodolac or chemokine in lower well; assay type: cell-based, human; conditions: overnight incubation at 200 μmol concentration, versus cells without etodolac; FIG. 1
Method: Cell migration was measured in a 24-well modified Boyden chamber (Transwell, Corning-Costar, N.Y.). The recombinant human IP-10 chemokine (R&D Systems, McKinley Place, Nebr.) was diluted in RPMI-1640 medium at 200 ng/ml, and used to evaluate the chemotactic properties of lymphocytes from B-CLL patients. Polycarbonate membranes with pore size of 3 μm were used. A total of […] of chemokines or control medium was added to the bottom wells, and […] of 2 to 5.0×10^6 cells/ml cells resuspended in RPMI-1640 were added to the top wells. […] The membranes were then removed, and the cells present on the bottom well were quantified by flow cytometry. For cell quantification, a fixed acquisition time of 30 seconds was used per sample, and beads were run during each experiment to ensure a reproducible acquisition. All assays were performed in triplicate. B-Chronic lymphocytic leukemia (B-CLL) cells were pre-incubated in the presence of various concentrations of etodolac for 16 hours, prior to loading in the upper part of a modified Boyden chamber with pore size of 3 μm. The lower reservoir contained either medium alone, or the CXCR3-binding chemokine IFN-inducible protein 10 (IP-10, 200 ng/ml). After 2 hours of incubation, the cells that traveled through the polycarbonate membrane were enumerated by flow cytometry. […] Control cells were incubated in the same medium without etodolac. The cells were then added to the upper wells of chemotaxis chambers divided by a 5 to 8 micron membrane. No etodolac was present in the lower portion of each well. FIG. 1 provides a graph of the number of chronic lymphocytic leukemia cells crossing through the membranes into the lower well.

[3] = test system: peripheral blood lymphocytes; assay: Chemokinesis: migration of peripheral blood lymphocytes through a membrane, no etodolac in lower well; assay type: cell-based, human; conditions: overnight incubation at 250 μM, versus cells without etodolac; FIG. 2
Method: Cell migration was measured in a 24-well modified Boyden chamber (Transwell, Corning-Costar, N.Y.). The recombinant human IP-10 chemokine (R&D Systems, McKinley Place, Nebr.) was diluted in RPMI-1640 medium at 200 ng/ml, and used to evaluate the chemotactic properties of lymphocytes from B-CLL patients. Polycarbonate membranes with pore size of 3 μm were used. A total of […] of chemokines or control medium was added to the bottom wells, and […] of 2 to 5.0×10^6 cells/ml cells resuspended in RPMI-1640 were added to the top wells. […] The membranes were then removed, and the cells present on the bottom well were quantified by flow cytometry. For cell quantification, a fixed acquisition time of 30 seconds was used per sample, and beads were run during each experiment to ensure a reproducible acquisition. All assays were performed in triplicate. Peripheral blood lymphocytes were incubated overnight in medium containing a racemic mixture of etodolac, the R-enantiomer of etodolac or the S-enantiomer of etodolac at 250 μM concentration. Control cells were incubated in the same medium without etodolac. The cells were then added to the upper wells of chemotaxis chambers divided by a 5 to 8 micron membrane. No etodolac was present in the lower portion of each well. FIG. 2 provides a graph of the number of peripheral blood lymphocytes crossing through the membranes into the lower well.

B-CLL cells [4] = conditions: for chemotactic response of B-CLL cells to IP-10: overnight incubation at 12.5 μM to 500 μM, B-CLL patients n=4, FIG. 3
[5] = test system: peripheral blood leukocytes; assay: Peripheral blood leukocyte counts in normal mice after etodolac by gastric lavage; assay type: in vivo; conditions: blood at 4 hr, 24 hr, 158 hr and 14 days, FIG. 5
Method: Normal mice were given 25 mg/kg etodolac or 100 mg/kg etodolac by gastric lavage. Control mice received no etodolac. Blood was drawn from each mouse at 4 hr, 24 hr, 158 hr and 14 days after etodolac administration and peripheral blood leukocyte counts were done.

[6] = test system: circulating lymphocyte counts; assay: Clinical trial of etodolac in B-CLL patients: circulating lymphocyte counts, lymphadenopathy; assay type: in vivo, human
Method: To determine if etodolac could reduce B-CLL survival in vivo, six B-CLL patients were enrolled in a first step challenge assay for etodolac sensitivity. Each patient received one 400 mg etodolac tablet, and a second tablet 12 hours later. B-CLL cells were isolated just before the first tablet, and 12 hours after the second. B-CLL cells recovered from patients were then cultured with 20% autologous plasma and apoptosis rates were measured, either before or after etodolac treatment. […] The five etodolac-sensitive patients were then enrolled in a second-step clinical trial in which they took etodolac for one month (400 mg bid).

B-CLL cells [7] = assay: Ex vivo viability (erythrosin B) of B-CLL cells isolated from patients before and after etodolac challenge; assay type: in vivo, human; conditions: for % Increased cell death: after versus before etodolac
Description: Written informed consent was obtained to procure peripheral blood from all patients and with normal healthy volunteers. Patients had to have B-CLL according to National Cancer Institute (NCI) criteria of any Rai stage. Criteria for requiring therapy were as follows: disease-related symptoms, anemia and/or thrombocytopenia, bulky lymphadenopathy, and/or clinically relevant splenomegaly. Mononuclear cells were isolated by gradient centrifugation through Ficoll-Paque. […] At the indicated times, viability assays were performed by erythrosin B dye exclusion. To determine if etodolac could reduce B-CLL survival in vivo, six B-CLL patients were enrolled in a first step challenge assay for etodolac sensitivity. Each patient received one 400 mg etodolac tablet, and a second tablet 12 hours later. B-CLL cells were isolated just before the first tablet, and 12 hours after the second. B-CLL cells recovered from patients were then cultured with 20% autologous plasma and apoptosis rates were measured, either before or after etodolac treatment. […] The five etodolac-sensitive patients were then enrolled in a second-step clinical trial in which they took etodolac for one month (400 mg bid). […] After 72 hour of incubation, viability assays were performed by erythrosin B staining. Numbers indicate the % of viable cells.

[8] = test system: Chronic lymphocytic leukemia (B-CLL) cells; assay: B-CLL colony morphology, aggregation and viability by light microscopy; assay type: cell-based, human; conditions: 24 hours
Method: Chronic lymphocytic leukemia (B-CLL) cells were incubated for 24 hr in medium containing the R-enantiomer of etodolac at 0.0 μM, 100 μM and 250 μM. concentrations. The cell morphology was observed under light microscopy. Control cells incubated without etodolac grew in large, flat colonies (FIG. 6A). However, after incubation for 24 hours with either 100 μM or 250 μM.

[9] = test system: Colon cancer cells (HCT-116); assay: Actin filament staining (phalloidin) and cell shape in colon cancer cells; assay type: cell-based; conditions: 500 μM, 5 hours; FIG. 7B
Method: Colon cancer cells (HCT-116) were incubated for 5 hours with either no etodolac (control cells) or 500 μM. R-etodolac (test cells). The cells were then fixed and the intracellular actin filaments were stained with phalloidan conjugated to a fluorogenic dye (Alexa-green). The control cells (FIG. 7A) had actin filaments arranged in rigid structures (stress fibers) that confer the “stretched” shape often seen in normal cells.

CCc1cccc2c3c([nH]c12)[C@](CC)(CC(=O)O)OCC3 [S-etodolac]
number of peripheral blood lymphocytes migrating through the membrane to IP-10 [1]: less cell migration than did the racemic mixture | number of chronic lymphocytic leukemia cells crossing through the membranes into the lower well [2]: more cells migrated through the membrane | number of peripheral blood lymphocytes crossing through the membranes into the lower well [3]: did not induce substantial chemokinesis | chemotactic response of B-CLL cells to IP-10 (B-CLL cells [4]): enhanced B-CLL chemotaxis

CCc1cccc2c3c([nH]c12)C(CC)(CC(=O)O)OCC3 (racemic) [etodolac]
etodolac concentration up to which the number of migrating peripheral blood lymphocytes increased ([1]; IP-10 in lower well): 100 µM | concentration at which chemotaxis of peripheral blood lymphocytes decreased, due to a loss of cell viability ([1]; human): ≥ 250 µM | number of peripheral blood lymphocytes migrating through the membrane to IP-10 [1]: increased with etodolac concentration | number of peripheral blood leukocytes ([5]; 25 mg/kg by gastric lavage): reduced | number of peripheral blood leukocytes ([5]; 100 mg/kg by gastric lavage): reduced | number of chronic lymphocytic leukemia cells crossing through the membranes into the lower well [2]: more cells migrated through the membrane | changes in lymphadenopathy ([6]; B-CLL patients on etodolac therapy): did not have clinically obvious changes in lymphadenopathy | B-CLL counts when etodolac treatment was interrupted ([6]; after one month of 400 mg bid): rebounded to pre-treatment levels | drop of circulating lymphocyte counts ([6]; two retreated B-CLL patients, over one month, results not shown): ~50% | % Increased cell death (B-CLL cells [7]; patient #1): 13% | % Increased cell death (B-CLL cells [7]; patient #2): 57% | % Increased cell death (B-CLL cells [7]; patient #3): 69% | % Increased cell death (B-CLL cells [7]; patient #4): 0% | % Increased cell death (B-CLL cells [7]; patient #5): 34% | % Increased cell death (B-CLL cells [7]; patient #6): 41% | patients whose cells displayed more ex vivo spontaneous apoptosis after in vivo etodolac challenge than before (B-CLL cells [7]; six B-CLL patients, two 400 mg tablets 12 hours apart): 5 out of 6 | number of peripheral blood lymphocytes crossing through the membranes into the lower well [3]: more cells migrated through the membrane | expression of the CXCR receptor, as assessed by antibody staining (B-CLL cells [4]; B-CLL cells, data not shown): not due to increased expression of the CXCR receptor | concentration at which chemotaxis of B-CLL cells decreased, due to a loss of cell viability (B-CLL cells [4]; human, 16 h): ≥ 500 µM | chemotactic response of B-CLL cells to IP-10 (B-CLL cells [4]): increased the chemotactic response

CCc1cccc2c3c([nH]c12)[C@@](CC)(CC(=O)O)OCC3 [R-etodolac]
number of peripheral blood lymphocytes migrating through the membrane to IP-10 [1]: less cell migration than did the racemic mixture | number of chronic lymphocytic leukemia cells crossing through the membranes into the lower well [2]: more cells migrated through the membrane | total number of B-CLL cells or their viability ([8]; 100 μM or 250 μM): No effect | B-CLL cell movement and colony morphology ([8]; 100 μM, FIG. 6B): the cells migrated toward each other, the diameter of the colonies was reduced, and multiple layers of cells were present in the colonies | B-CLL cell movement and colony morphology ([8]; 250 μM, FIG. 6C): the cells migrated toward each other and the diameter of the colonies was reduced; also recorded: the cells migrated even more toward each other, the diameter of the colonies was even further reduced and even more layers of cells were present in the colonies | number of peripheral blood lymphocytes crossing through the membranes into the lower well [3]: did not induce substantial chemokinesis | chemotactic response of B-CLL cells to IP-10 (B-CLL cells [4]): enhanced B-CLL chemotaxis | actin filaments and cell shape of HCT-116 cells [9]: no conventional stress fibers are observed and the cells assume a rounded shape
